According to paper PMC9913752, “Proof-of-Concept Study of an Alpha-Fetoprotein-Derived Peptide for the Management of Canine Mammary Cancer” (Animals : an Open Access Journal from MDPI, 2023):
Where two headings read alike, the source gives them in different places. Where a SMILES comes first, the peptide text is derived from it. [ ]: non-standard residue; d: D form. Hyp = O=C(O)[C@@H]1C[C@@H](O)CN1

Experiments:
[1] = Clinical parameters in unanesthetized dogs; assay type: in vivo, dog
[2] = tested on: ER-positive primary canine mammary cancer cells; conditions: cited from earlier work
Protocol: It is important to note that during the development of AFPep, head-to-tail cyclization was carried out to increase stability as well as oral bioavailability. Other investigators have shown that the cyclization of peptides increases bioavailability.

[3] = in vivo; design: species or system Macaca mulatta; conditions: monkey
Protocol: (§1) AFPep (4 mg/kg) was administered by parenteral (i.v., s.c.) as well as oral routes to normal adult mice, dogs, and monkeys. Blood samples were obtained from anesthetized mice via the retroorbital plexus. Blood samples from dogs and monkeys were obtained through an indwelling catheter in the cephalic vein by the veterinarian staff at Albany Medical College. Dogs were awake and alert during sampling; monkeys were under anesthesia, as previously described. For the oral route, gavage was used in mice and monkeys; enteric capsules ([…]) containing AFPep were used and were readily swallowed by dogs. AFPep blood levels were measured using lliquid chromatography and mass spectrometry, as previously described.

[4] = tested on: MCF-7 human breast cancer xenografts; conditions: cited from earlier work
Protocol: Table 1 The therapeutic and preventive efficacy of AFPep * in rodent models of mammary cancer. | column: MCF-7 Human Breast Cancer Growth in SCID Mice ^1 || The efficacy of AFPep in various models of mammary cancer has been shown in multiple reports. […] A 4 mg/kg dose was assessed parenterally, and the dosage was escalated to 100 mg/kg, administered orally.

[5] = Pharmacokinetics in dogs; assay type: in vivo; conditions: dog; for AUC / Cmax: plasma LC/MS/MS
Protocol: as §1

[6] = 8-day repeat-dose study, AFPep blood levels in tumor-bearing dogs; assay type: in vivo, dog; conditions: for level at 0.5 h: female, dog, blood, sc, 10 mg
Description: Previous studies utilizing repeat dosing in mice and rats established safe starting doses for studies using dogs. Female dogs with one or more spontaneously occurring mammary gland tumors greater than approximately 2 cm in maximum diameter, presenting to the Cancer Institute at the Schwarzman Animal Medical Center in New York City, were screened for inclusion in the study. […] All dogs underwent complete clinical staging, consisting of a complete blood count with cell differential, clinical chemistry, and urinalysis. Dogs were administered AFPep 10 mg s.c. once daily for 8 consecutive days. Tumors were biopsied prior to the administration of AFPep and were surgically removed on day 8 after the last injection of AFPep. Blood levels of AFPep were measured before and 30 minutes following its administration on the first day and eighth day of treatment with AFPep. Histopathology was obtained on all mammary gland tumors. Tolerability was assessed using the Veterinary Cooperative Oncology Group Common Terminology Criteria for Adverse Events. Blood chemistry and hematology analyses were performed at IDEXX Laboratories Inc. (Westbrook, ME, USA), using the Sysmex XT and Beckman AU 5800 systems. This study was approved by the Schwarzman Animal Medical Center IACUC and informed consent was obtained in writing from all owners.

[7] = Blood chemistry and hematology after single i.v. dose in dogs; assay type: in vivo, dog; design: Bilirubin Conjugated / WBC: unit not given here
Protocol: Monkeys (Macaca mulatta, males) were contractually available through the Animal Resource Facility at Albany Medical College. The monkeys were used to assess pharmacokinetics and tolerability, in anticipation of future human studies. For dogs and monkeys, the full panels of clinical chemistry and hematology parameters were assessed. Monkeys were housed and cared for in accordance with the Guide for the Care and Use of Laboratory Animals (National Research Council, Washington, DC, USA). They were fed a standard Old World monkey diet, enriched with fruits and vegetables and other dietary novelties.

[8] = unanesthetized dogs, 30 min Post AFPep, mean ± SE from 6 dogs
[9] = p.o. enteric capsules (DRcaps), 4 mg/kg per footnote (100 mg/kg orally)
[10] = dogs ~10 kg, 24 h after i.v. 40 mg AFPep, average from 2 dogs
[11] = dogs ~10 kg, 24 h after i.v. 40 mg AFPep, average ± range from 2 dogs, in U/L (unit assumed)
[12] = dogs ~10 kg, 24 h after i.v. 40 mg AFPep, average ± range from 2 dogs, in g/dL (unit assumed)
[13] = dogs ~10 kg, 24 h after i.v. 40 mg AFPep, average ± range from 2 dogs, in mg/dL (unit assumed)
[14] = dogs ~10 kg, 24 h after i.v. 40 mg AFPep, average ± range from 2 dogs, in mmol/L (unit assumed)

CC(C)[C@@H]1NC(=O)[C@@H]2C[C@@H](O)CN2C(=O)[C@H]([C@@H](C)O)NC(=O)[C@H](CCCCN)NC(=O)[C@H](CCC(=O)O)NC(=O)[C@H](CC(N)=O)NC(=O)CNC(=O)[C@@H]2C[C@@H](O)CN2C(=O)[C@H](CC(N)=O)NC1=O [AFPep] (cyclo(EKT[Hyp]VN[Hyp]GN))
other clinical indicators (mobility, playfulness, appetite, stool consistency, heart rate, respiration rate, capillary refill time, body temperature) ([1]; dogs): remained normal | reflux or vomiting after administration ([1]; dogs): no evidence of reflux or vomiting | Capillary refill time ([1]; unanesthetized dogs, 30 min Post AFPep, 6 dogs): <2 s | Body temperature ([1]; unanesthetized dogs, 30 min Post AFPep, mean from 6 dogs): 39.0 °C | Heart Rate [1, 8]: 112 ± 5 | Respiration Rate [1, 8]: 28 ± 4 | activity against ER-positive primary canine mammary cancer cells growing in culture [2]: effective | AUC ([3]; iv, 4 mg/kg): 26200 ng·h/mL | Cmax ([3]; iv, 4 mg/kg): 13000 ng/mL | half-life ([3]; iv, 4 mg/kg): 1.78 h | half-life ([3]; po): 13.5 h | AUC ([3]; sc, 4 mg/kg): 23400 ng·h/mL | Cmax ([3]; sc, 4 mg/kg): 8200 ng/mL | half-life ([3]; sc, 4 mg/kg): 0.45 h | MCF-7 Human Breast Cancer Growth in SCID Mice (tumor volume) ([4]; AFPep 100 μg/mouse (4 mg/kg) oral gavage once daily for 14 days, established xenografts, p < 0.05 vs saline): 30 mm³ | blood levels of AFPep needed for anti-breast cancer activity [4]: 10^−7 M | minimum blood level (Cmax) needed for stoppage of xenograft growth ([4]; dose-response studies, human breast cancer xenografts in immune-deficient mice): 0.1 µg/mL | minimum AUC needed for stoppage of xenograft growth ([4]; dose-response studies, xenografts in mice): 6.5 µg·min/mL | tumor outgrowth when dosing begun immediately following tumor implantation ([4]; once daily, 30-day observation period): completely prevented | growth of established MCF-7 xenografts ([4]; once-daily oral 4 mg/kg over a 14-day period, immunodeficient mice): almost completely stopped in their growth | T1/2 ([5]; in vivo): 0.65 h | half-life ([5]; in vivo, iv, 4 mg/kg): 0.3 h | half-life ([5]; in vivo, sc, 4 mg/kg): 1.08 h | AUC [5, 9]: 14 min(µg/mL) | Cmax [5, 9]: 100 ng/mL | Cmax ([5]; iv, i.v., 4 mg/kg, non-linear regression, first-order PK model, read-out: Cmax): 35000 ng/mL | AUC ([5]; iv, i.v., 4 mg/kg, read-out: AUC (converted)): 15000 ng·h/mL | AUC ([5]; sc, s.c., 4 mg/kg, read-out: AUC (converted)): 13500 ng·h/mL | Cmax ([5]; sc, s.c., 4 mg/kg, read-out: Cmax): 5800 ng/mL | AFPep blood level, Day 8 Pre-Treatment ([6]; Chihuahua, 7.53 kg, 10 mg s.c. once daily for 8 days, single animal): 0 ng/mL | AFPep blood level, Day 8 Pre-Treatment ([6]; Pitbull, 30.2 kg, 10 mg s.c. once daily for 8 days, single animal): 0 ng/mL | AFPep blood level, Day 8 Pre-Treatment ([6]; Pomeranian, 7.98 kg, 10 mg s.c. once daily for 8 days, single animal): 0 ng/mL | AFPep blood level, Day 8 Pre-Treatment ([6]; Shih tzu, 11.02 kg, 10 mg s.c. once daily for 8 days, single animal): 0 ng/mL | AFPep blood level, Day 8 Pre-Treatment ([6]; Yorkshire terrier, 5.86 kg, 10 mg s.c. once daily for 8 days, single animal): 0 ng/mL | level at 0.5 h ([6]; Pomeranian, Pomeranian, 7.98 kg, 30 min after 10 mg s.c., single animal, read-out: AFPep blood level, Day 1 Post-Treatment): 2400 ng/mL | level at 0.5 h ([6]; Pomeranian, Pomeranian, 7.98 kg, 30 min after dose, 10 mg s.c. once daily for 8 days, single animal, read-out: AFPep blood level, Day 8 Post-Treatment): 2100 ng/mL | level at 0.5 h ([6]; Poodle mix, Poodle mix, 5.80 kg, 30 min after 10 mg s.c., single animal, read-out: AFPep blood level, Day 1 Post-Treatment): 4400 ng/mL | level at 0.5 h ([6]; Poodle mix, Poodle mix, 5.80 kg, 30 min after dose, 10 mg s.c. once daily for 8 days, single animal, read-out: AFPep blood level, Day 8 Post-Treatment): 5000 ng/mL | level at 0.5 h ([6]; Yorkshire terrier, Yorkshire terrier, 5.86 kg, 30 min after 10 mg s.c., single animal, read-out: AFPep blood level, Day 1 Post-Treatment): 2200 ng/mL | level at 0.5 h ([6]; Yorkshire terrier, Yorkshire terrier, 5.86 kg, 30 min after dose, 10 mg s.c. once daily for 8 days, single animal, read-out: AFPep blood level, Day 8 Post-Treatment): 1900 ng/mL | level at 0.5 h ([6]; diverse breeds, Mean ± S.D. of 6 tumor-bearing dogs, 30 min after 10 mg s.c., first day, read-out: AFPep blood level, Day 1 Post-Treatment): 3600 ± 1200 ng/mL | level at 0.5 h ([6]; diverse breeds, Mean ± S.D. of 6 tumor-bearing dogs, 30 min after the day-8 dose, 10 mg s.c. once daily for 8 days, read-out: AFPep blood level, Day 8 Post-Treatment): 2500 ± 600 ng/mL | level at 0.5 h ([6]; summary of Table 6, 30 minutes post-AFPep, 10 mg s.c. once a day for 8 days, 6 tumor-bearing dogs, read-out: AFPep blood levels): 2000 to 3000 ng/mL | liver enzymes ([7]; 4 mg/kg i.v., dogs, no anesthesia, mild manual restraint): No such elevations in liver enzymes | changes to clinical chemistry and hematology values ([7]; 4 mg/kg i.v., normal beagle dogs): In no case did exposure to AFPep result in significant changes | Bilirubin Conjugated [7, 10]: 0 | Total Bilirubin [7, 10]: 0.1 mg/dL | WBC ([7]; dogs ~10 kg, 24 h after i.v. 40 mg AFPep, average ± range from 2 dogs): 7.0 ± 3 | Platelet ([7]; dogs ~10 kg, 24 h after i.v. 40 mg AFPep, average ± range from 2 dogs, in 10^3/µL (unit assumed)): 274 ± 21 | RBC ([7]; dogs ~10 kg, 24 h after i.v. 40 mg AFPep, average ± range from 2 dogs, in 10^6/µL (unit assumed)): 6.9 ± 1 | HCT ([7]; dogs ~10 kg, 24 h after i.v. 40 mg AFPep, average ± range from 2 dogs, in % (unit assumed)): 46 ± 1.5 | ALP [7, 11]: 33 ± 2 | ALT [7, 11]: 16 ± 1 | AST [7, 11]: 20 ± 1 | Creatine Kinase [7, 11]: 135 ± 2.7 | GGT [7, 11]: 3 ± 1 | MCV ([7]; dogs ~10 kg, 24 h after i.v. 40 mg AFPep, average ± range from 2 dogs, in fL (unit assumed)): 68 ± 0.8 | Albumin [7, 12]: 3.2 ± 0.1 | Globulin [7, 12]: 2.6 ± 0.1 | HGB [7, 12]: 15.9 ± 1 | Total Protein [7, 12]: 5.8 ± 0.1 | BUN [7, 13]: 13.2 ± 2 | Calcium [7, 13]: 10.3 ± 0.4 | Cholesterol [7, 13]: 171 ± 2 | Creatinine [7, 13]: 0.7 ± 0.1 | Glucose [7, 13]: 93 ± 9 | Phosphorous [7, 13]: 4.6 ± 0.2 | Bicarbonate TCO2 [7, 14]: 21 ± 1 | Chloride [7, 14]: 112 ± 1 | Potassium [7, 14]: 4.7 ± 0.1 | Sodium [7, 14]: 146 ± 2 | MCH ([7]; dogs ~10 kg, 24 h after i.v. 40 mg AFPep, average ± range from 2 dogs, in pg (unit assumed)): 23.2 ± 1
